The source of these data is patent US7572793B2, “3-Substituted-4-pyrimidone derivatives” (Mitsubishi Tanabe Pharma Corporation, priority 2001, dated 2009).

SMILES strings stand for the structures.

In this test the target is T1, bovine cerebral TPK1 (Bos taurus, UniProt A0A3Q1MT31).
T1 construct: from tissue; host or cells: bovine brain (cerebrum)
The test can be described thus: Inhibitory activity against P-GS1 phosphorylation by bovine cerebral TPK1. The class given is biochemical. The settings on record: 41.7 μM [γ-32P]ATP, 25° C., 2 hours, pH 6.5. The protocol:
Inhibitory Activity of the Medicament of the Present Invention Against P-GS1 Phosphorylation by Bovine Cerebral TPK1
A mixture containing 100 mM MES-sodium hydroxide (pH 6.5), 1 mM magnesium acetate, 0.5 mM EGTA, 5 mM β-mercaptoethanol, 0.02% Tween 20, 10% glycerol, 12 μg/ml P-GS1, 41.7 μM [y-^32P] ATP (68 kBq/ml), bovine cerebral TPK1 and a compound shown in Table (a final mixture contained 1.7% DMSO deriving from a solution of a test compound prepared in the presence of 10% DMSO) was used as a reaction system. The phosphorylation was started by adding ATP, and the reaction was conducted at 25° C. for 2 hours, and then stopped by adding 21% perchloric acid on ice cooling. The reaction mixture was centrifuged at 12,000 rpm for 5 minutes and adsorbed on P81 paper (Whatmann), and then the paper was washed four times with 75 mM phosphoric acid, three times with water and once with acetone. The paper was dried, and the residual radioactivity was measured using a liquid scintillation counter. […] PHF formation, and that the medicaments of the present invention are effective for preventive and/or therapeutic treatment of Alzheimer disease and the above-mentioned diseases.

T1 sequence (A0A3Q1MT31 1-419): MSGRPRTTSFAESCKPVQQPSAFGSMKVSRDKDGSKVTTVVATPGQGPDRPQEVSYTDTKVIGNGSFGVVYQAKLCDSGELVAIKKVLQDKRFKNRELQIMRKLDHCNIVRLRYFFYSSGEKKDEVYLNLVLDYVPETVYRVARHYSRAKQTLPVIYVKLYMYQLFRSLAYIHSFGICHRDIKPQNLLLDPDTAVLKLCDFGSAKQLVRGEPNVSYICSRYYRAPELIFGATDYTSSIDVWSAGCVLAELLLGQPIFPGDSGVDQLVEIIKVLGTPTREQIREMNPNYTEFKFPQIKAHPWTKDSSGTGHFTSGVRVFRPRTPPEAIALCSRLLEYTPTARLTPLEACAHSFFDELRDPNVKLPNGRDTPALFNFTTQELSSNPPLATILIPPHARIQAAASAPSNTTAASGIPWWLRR

Regarding `COc1cc(-c2ccc(F)cc2)ccc1C1CN(c2nc(-c3ccncn3)cc(=O)n2C)CCO1` (stereo not drawn) [Compound B279], 1.2 nM corresponded to half-maximal inhibition (IC50).

Regarding `COc1ccc(-c2ccccn2)cc1C1CN(c2nc(-c3ccncn3)cc(=O)n2C)CCO1` (stereo not drawn) [Compound B280], the IC50 – broadly, the concentration at which inhibition is half-maximal – is 0.6 nM. For `COc1cccc(-c2ccc(OC)c(C3CN(c4nc(-c5ccncn5)cc(=O)n4C)CCO3)c2)n1` (stereo not drawn) [Compound B281] the value was 0.84 nM; for `COc1ncc(-c2ccc(OC)c(C3CN(c4nc(-c5ccncn5)cc(=O)n4C)CCO3)c2)c(OC)n1` (stereo not drawn) [Compound B283], 1.9 nM; for `Cn1c(N2CCOC3(CCOc4ccccc43)C2)nc(-c2ccncn2)cc1=O` (stereo not drawn) [Compound B284], 11 nM. Molecule `Cn1c(N2CCOC3(CCCOc4ccccc43)C2)nc(-c2ccncn2)cc1=O` (stereo not drawn) [Compound B285] displayed an IC50 of 26 nM. Take `Cn1c(N2CCCC(C(=O)c3ccccc3)C2)nc(-c2ccncn2)cc1=O` (stereo not drawn) [Compound C401]: it took 1.1 nM to reach half-maximal inhibition (IC50). Compared with the last molecule, the IC50 is about 24-fold lower. The same measure for `Cn1c(N2CCOC(C(=O)c3ccccc3)C2)nc(-c2ccncn2)cc1=O` (stereo not drawn) [Compound C501]: 0.56 nM; for `Cn1c(N2CCC(C(=O)c3ccc(Cl)cc3)CC2)nc(-c2ccncn2)cc1=O` [Compound D034, 2-[4-(4-Chlorobenzoyl)piperidin-1-yl]-3-methyl-6-pyrimidin-4-yl-3H-pyrimidin-4-one]: 1.1 nM.
